Laboratory results taken from US9868690B2, “Prodrugs of monomethyl fumarate (MMF)” (RATIOPHARM GMBH, priority 2013, dated 2018).
Counter-ions that a name gives are not always drawn.

Test: Kinetic of MMF-release during incubation in intestinal fluid from the minipig
Format: in vitro ADME, Göttingen SPF minipig
Settings: incubation in minipig small intestinal fluid diluted 1/20 v/v with 50 mM KH2PO4, pH 6.8, 37° C., samples 0-120 min (up to 1,320 min); reference DMF
Protocol: Investigation and Comparison of the Kinetic of MMF-Release of the Different Compounds of the Present Invention and DMF During Incubation in Intestinal Fluid from the Minipig
Intestinal fluid samples were prepared at CiToxLAB Scantox A/S. The samples were taken from 1 female Göttingen SPF minipig from CiToxLAB Scantox A/S standard stock, originally obtained from Ellegaard Göttingen Minipigs A/S, DK-4261 Dalmose, Denmark. The minipig was 10 months old and the body weight was 21 kg. The minipig was identified by an individual number tagged to the pinna of one ear (animal number is documented in the raw data).
The minipig was fasted for approximately 28 hours before sampling of intestinal fluid. On the day of sampling, the minipig was weighed and anaesthetised by an intramuscular injection in the neck or in the left hind leg (about 0.3 ml per kg body weight) of a mixture of Zoletil 50 Vet., Virbac, France (125 mg tiletamine and 125 mg zolazepam), Rompun Vet., Bayer, Germany (20 mg xylazine/ml, 6.5 ml), Ketaminol Vet., Veterinaria AG, Switzerland (100 mg ketamine/ml, 1.5 ml) and Methadon DAK, Nycomed Danmark, Denmark (10 mg methadon/ml, 2.5 ml).
Intestinal fluid was obtained by flushing one jejunal segment, measuring 30.2 cm, with saline. Intestinal fluid together with saline used for flushing was placed in centrifuge tubes. All samples were frozen at −70° C. and shipped on dry ice to the Sponsor for further use.
• Instrument: Acquity UPLC system coupled with a TQ detector (triple quadruple mass spectrometer) UPLC Method: • Column: Phenomenex Kinetex C18, 100 A, 2.6 μm (150×4.6 mm) • flow: 0.4 ml/min • split: appr. 100 μl/min to MS • temperature 30° C. • solvent system (isocratic): • Solvent A 25% water with 0.1% acetic acid • Solvent B 75% methanol with 0.1% acetic acid • stoptime: 6 min • autosampler temperature: 8° C. • injection volume: 4 μl • retention time: MMF: 4.3 min • MEF: 4.7 min Mass Spectrometry • software: Masslynx 4.1 • detection mode: electrospray/negative ions (ESP−) • capillary voltage: 2.3 kV • source temperature: 100° C. • desolvation temperature: 450° C. • cone voltage: 18 V • desolvation gas: N2, 650 L/h • cone gas: N2, 20 L/h • collision gas: argon, appr. 3.3*10^−3 mbar • collision energy: 11 eV • MRM [m/z]: 128.94>85.03 Monomethylfumarate dwell:200 msec • 142.99>99.06 Monoethylfumarate (ISTD) dwell:200 msec 2.1.2. Stock and Calibration Solutions
Calibration solutions were prepared by serial dilution of SSMMF; diluted small intestinal fluid (diluted by 1/20 v/v with 50 mM KH2PO4, pH 6.8; (dil IF) was used as matrix. The dilution scheme is given below:
50 μl sample (calibration solution or sample of an incubation experiment with MMF prodrugs) was mixed with 50 μl WSISTD, 20 μl formic acid and 100 μl acetonitrile. This mixture was vortexed for 15 sec and centrifuged (13,000 rpm, 3 min). Thereafter, 4 μl of the supernatant were subjected to LC-MS analysis.
2.2. Incubation Experiments with DMF (Reference) and Compounds of the Invention
Stock solutions were prepared in DMSO or in DMSO with 10% (v/v) with water. Concentrations in stock solutions were 5.00, 2.50 and 1.67 mmol for compounds with one, two and three molar MMF equivalents.
In a HPLC glass vial, 8 μl of stock solution were mixed with 792 μl dil IF and the mixture was stirred (250 rpm) in a water bath (T=37° C.).
Immediately after mixing as well as at t=15 min, 30 min, 60 min, 90 min and 120 min, 50 μl were withdrawn and prepared for LC-MS analysis as described in chapter. 2.1.3.
Incubations were continued and in case the result of analysis of the 120 min indicated the presence of remaining intact MMF-prodrug, additional samples were taken (t=360 or 420 min and at 1,260 or 1,320 min) and analysed.
The concentration/peak area ratio data pairs were subjected to regression analysis with 1/x weighting and the resulting calibration equation was used to quantify the MMF content in incubation samples.

Structure (SMILES) | hydrolysis to MMF (MMF release, LC-MS) compared with DMF
COC(=O)/C=C/C(=O)OCCN1CCS(=O)(=O)CC1 [Example 1a, (E)-But-2-enedioic acid 2-(1,1-dioxo-1-lambda*6*-thiomorpholin-4-yl)-ethyl ester methyl ester] | significantly slower hydrolysis to MMF than DMF
COC(=O)/C=C/C(=O)OCCN1CC[S+]([O-])CC1 [Example 1a′, (E)-But-2-enedioic acid methyl ester 2-(1-oxo-1lambda*4*-thiomorpholin-4-yl)-ethyl ester] | significantly slower hydrolysis to MMF than DMF
COC(=O)/C=C/C(=O)OCCN1CCN(C)CC1 [Example 1b, (E)-But-2-enedioic acid methyl ester 2-(4-methyl-piperazin-1-yl) ethyl dihydrochloride] | significantly slower hydrolysis to MMF than DMF
COC(=O)/C=C/C(=O)OCCN1CCN(C(C)C)CC1 [Example 1c, (E)-But-2-enedioic acid methyl ester 2-(4-isopropyl-piperazin-1-yl) ethyl dihydrochloride] | significantly slower hydrolysis to MMF than DMF
COC(=O)/C=C/C(=O)OCCN(CCOC(=O)/C=C/C(=O)OC)CCOC(=O)/C=C/C(=O)OC [Example 2, tris-[2-(E)-3-methoxycarbonylacryloyloxy)-ethyl]amine hydrochloride] | significantly slower hydrolysis to MMF than DMF
COC(=O)/C=C/C(=O)OCC(COC(=O)/C=C/C(=O)OC)OC(=O)/C=C/C(=O)OC [Example 3, (E)-but-2-enedioic acid 2,3-bis-(-3-methoxycarbonyl-acryloyloxy)-propyl ester methyl ester] | significantly slower hydrolysis to MMF than DMF
COC(=O)/C=C/C(=O)OCOP(=O)(OC(C)(C)C)OC(C)(C)C [Example 4a, (E)-but-2-enedioic acid di-tert-butoxy-phosphoryloxymethyl ester methyl ester] | significantly slower hydrolysis to MMF than DMF
COC(=O)/C=C/C(=O)OCCOC(=O)[C@@H](N)C(C)C [Example 5a, (E)-but-2-enedioic acid 2-((S)-2-amino-3-methyl-butyrryloxy)-ethyl ester methyl ester hydrochloride] | significantly slower hydrolysis to MMF than DMF
COC(=O)/C=C/C(=O)OCc1oc(=O)oc1C [Example 6, (E)-but-2-enedioic acid methyl ester5-methyl-2-oxo-[1,3]dioxol-4-yl methyl ester] | significantly slower hydrolysis to MMF than DMF
